Data taken from patent publication US20260021193A1, “IMMUNOCONJUGATES AND METHODS” (Immunome, Inc., priority 2022, published 2026).

How the values were obtained:
[1] = Human hepatocyte clearance (HHEP CL); type: in vitro ADME; design: CLint scaled / half-life: dose or concentration left out as unconfirmed
Method: Suspensions of human hepatocytes (from 10 mixed gender human donors, final concentration 0.5×10^6 cell/mL) in Williams' E medium were incubated for 90 min with a test compound (0.90% acetonitrile and 0.10% DMSO, final concentration […]) and positive controls (7-Ethoxycoumarin, 7-Hydroxycoumarin, 0.90% acetonitrile and 0.10% DMSO, final concentration […]), with constant shaking at about 600 rpm at 37° C. in an incubator at 5% CO2 and 95% humidity. The total volume of incubation was 200 μl. A sample ([…]) was taken out at T0, 15, 30, 60 and 90 min, which was added intermediately to the ice-cold stop solution (acetonitrile with 200 ng/mL of to butamide and labetalol as internal standard) (125 μl), and vortexed at 500 rpm for 10 min, centrifuged at 3220×g for 20 min at 4° C. Analytical plates were sealed and stored at 4° C. until LCMS analysis. Viability of hepatocytes at pre-incubation was determined to be 84.5%.
(§1) Human liver microsome clearance assay assess metabolism by the cytochrome P450 system (phase I enzymes). These enzymes oxidize substrates by incorporating oxygen atoms into hydrocarbons, thus causing the introduction of hydroxyl groups, or N- O- and S-dealkylation of substrates and forming more polar products easier to be cleared. Human hepatocyte clearance assay measures more broadly the overall cellular metabolism of the test compound (phase I and phase II enzyme pathways). Phase II enzymes catalyze the conjugation reaction of xenobiotic metabolites and charged species, such as glutathione, sulfate, glycine, or glucuronic acid to form even more polar compounds for easier clearance.

[2] = PAMPA (Parallel Artificial Membrane Permeability Assay); type: physicochemical; design: dose or concentration left out as unconfirmed
Description: PAMPA is a method which determines the permeability of substances from a donor compartment, through a lipid-infused artificial membrane into an acceptor compartment. See Ottaviani, G.; Martel, S.; Carrupt, P-A. “Parallel Artificial Membrane Permeability Assay: A New Membrane for the Fast Prediction of Passive Human Skin Permeability”, Journal of Medicinal Chemistry, 2006, 49 (13), 3948-3954). A multi-well microtitre plate is used for the donor and a membrane/acceptor compartment is placed on top; the whole assembly is commonly referred to as a “sandwich”. At the beginning of the test, the drug is added to the donor compartment, and the acceptor compartment is drug-free. After an incubation period which may include stirring, the sandwich is separated, and the amount of drug is measured in each compartment. Mass balance allows calculation of drug that remains in the membrane.
The PAMPA was performed by Pion Inc using the GIT-0 lipid and 5 mM donor solution in pH 5.0 and pH 7.4 PRISMA buffer (containing 0.05% DMSO). The higher PAMPA data has been associated with better bystander killing. (Ogitani Y.; Hagihara K.; Oitate, M.; Naito, H.; Agatsuma T. “Bystander killing effect of DS-8201a, a novel anti-human epidermal growth factor receptor 2 antibody-drug conjugate, in tumors with human epidermal growth factor receptor 2 heterogeneity” Cancer Science, 2016, 107 (7), 1039-1046).

[3] = Human liver microsome clearance (HLM CL); type: in vitro ADME; design: CLint scaled / half-life: dose or concentration left out as unconfirmed
Method: Working solution was prepared by adding 5 μL of compound and control stock solution (10 mM in dimethyl sulfoxide, DMSO) to 495 μL of acetonitrile (ACN) (intermediate solution concentration: 100 μM, 99% CAN and 1% DMSO. The appropriate concentrations of microsome working solutions were prepared in 100 mM potassium phosphate buffer. After reaction plates containing mixtures of compound and microsomes were pre-incubated at 37° C. for 10 min, […] of 2 mM of NADPH and 2 mM of MgCl2 solution was added to start the reaction. The final concentrations of incubation medium were as follows: microsome—0.5 mg protein/mL, test compound/control […], NADPH—1 mM, MgCl2—1 mM, acetonitrile 0.99%, DMSO 0.01%. Incubations were performed at 37° C. for 60 min. Samples were taken out at T0, T5, T15, T30, T45 and T60, which was added intermediately to the ice-cold stop solution (acetonitrile with 200 ng/mL of to butamide and labetalol as internal standard) (125 μl), shaken for 10 min, centrifuged at 4000 rpm for 20 min at 4° C. Analytical plates were analyzed by LCMS.
as §1

Jeko-1 = experiment: CTG assay of payloads, Jeko-1 cells; type: cell-based, human; conditions: 72 h, CellTiter-Glo
Description: (§2) The CTG assay is a method of determining the number of viable cells in culture based on quantitation of the ATP present, an indicator of metabolically active cells. The cell assay requires the addition of a single reagent, Cell Titer Glo, in which cells are lysed and generation of a luminescent signal is produced. The luminescent signal is proportional to the amount of ATP present. The amount of ATP is directly proportional to the number of cells present in culture. For this assay, cells were ensured to be in log-phase for either Jeko-1 or MDA-MB-468. Cells were transferred to 96 wells and treated with compounds in three-fold serial dilution starting from […] (10 points dilution), for 72 h. Cell viability was analyzed with CellTiter-Glo® Luminescent Cell Viability Assay (Promega) following manufactures' instruction. Percentage of viable cells in each compound concentration was determined by normalizing with the luminescence of vehicle control and plotted into percentage of viability versus dose response curve by nonlinear fit in GraphPad Prism software.

MDA-MB-468 = experiment: CTG assay of payloads, MDA-MB-468 cells; type: cell-based, human; conditions: Table 1, 72 h, CellTiter-Glo
Description: as §2

Compound	half-life ([1]; both sexes, human, hepatocytes)	Papp ([2]; pH 5)	Papp ([2]; pH 7.4)	half-life ([3]; human, microsomes)	IC50 (Jeko-1; Homo sapiens, JeKo-1, Table 2)	other results
CC[C@@]1(O)C(=O)OCc2c1cc1n(c2=O)Cc2c-1nc1cc(F)c(C)c3c1c2[C@@](C)(CCO)CC3 (single isomer, unassigned) [Compound 14-71]	47 min	25 ×10⁻⁶ cm/s	17.3 ×10⁻⁶ cm/s	10.8 min	0.18 nM	–
CC[C@@]1(O)C(=O)OCc2c1cc1n(c2=O)Cc2c-1nc1cc(F)c(C)c3c1c2[C@](C)(CCCO)CC3 (single isomer, unassigned) [Compound 15-75]	76.5 min	16.5 ×10⁻⁶ cm/s	11.5 ×10⁻⁶ cm/s	22.4 min	0.88 nM	–
CC[C@@]1(O)C(=O)OCc2c1cc1n(c2=O)Cc2c-1nc1cc(F)c(C)c3c1c2[C@@](C)(CCCO)CC3 (single isomer, unassigned) [Compound 15-76]	40.8 min	45.5 ×10⁻⁶ cm/s	33.2 ×10⁻⁶ cm/s	5.2 min	0.27 nM	–
CC[C@@]1(O)C(=O)OCc2c1cc1n(c2=O)Cc2c-1nc1cc(F)c(C)c3c1c2[C@](C)(COCCO)CC3 (single isomer, unassigned) [Compound 16-82]	45 min	54.8 ×10⁻⁶ cm/s	25.5 ×10⁻⁶ cm/s	5.6 min	0.64 nM	–
CC[C@@]1(O)C(=O)OCc2c1cc1n(c2=O)Cc2c-1nc1cc(F)c(C)c3c1c2[C@@](C)(COCCO)CC3 (single isomer, unassigned) [Compound 16-83]	113 min	47.7 ×10⁻⁶ cm/s	25.1 ×10⁻⁶ cm/s	25.7 min	1.1 nM	–
C=CC[C@@H]1CCc2c(C)c(F)cc3nc4c(c1c23)Cn1c-4cc2c(c1=O)COC(=O)[C@]2(O)CC (single isomer, unassigned) [Compound 17-86]	46 min	–	–	13 min	0.93 nM	–
C=CC[C@H]1CCc2c(C)c(F)cc3nc4c(c1c23)Cn1c-4cc2c(c1=O)COC(=O)[C@]2(O)CC (single isomer, unassigned) [Compound 17-87]	31 min	–	–	5.4 min	0.58 nM	–
CC[C@@]1(O)C(=O)OCc2c1cc1n(c2=O)Cc2c-1nc1cc(F)c(C)c3c1c2C(CO)(CO)CC3 [Compound 2-20, (S)-9-ethyl-5-fluoro-9-hydroxy-1,1-bis(hydroxymethyl)-4-methyl-2,3,12,15-tetrahydrobenzo [de]pyrano[3′,4′:6,7]indolizino[1,2-b]quinoline-10,13(1H,9H)-dione]	161 min	–	–	27 min	–	CLint scaled ([1]; both sexes, human, hepatocytes): 24 mL/min/kg; CLint scaled ([3]; human, microsomes): 46 mL/min/kg; IC50 (MDA-MB-468; Homo sapiens, MDA-MB-468): 351 nM; IC50 (Jeko-1; Homo sapiens, JeKo-1, Table 1): 40.8 nM
CC[C@@]1(O)C(=O)OCc2c1cc1n(c2=O)Cc2c-1nc1cc(F)c(C)c3c1c2[C@@H](NC(=O)CO)CC3 [Dxd, reference compound]	–	–	–	–	–	HHEP (T1/2) ([1]; Table 1, human hepatocytes): (217) min; HHEP Cl ([1]; Table 1, human hepatocytes intrinsic clearance): 17.8 mL/min/kg; HHEP Cl (T1/2) ([1]; Table 2, one value per cell): >217; HLM Cl ([3]; Table 1, human liver microsome clearance): 8.6 mL/min/kg; HLM (T1/2) ([3]; Table 1, human liver microsomes): (>145); HLM Cl (T1/2) ([3]; Table 2, one value per cell): 52.2; IC50 (MDA-MB-468): 11.6 nM; IC50 (Jeko-1; Table 1): 1.42 nM; IC50 (Jeko-1; Table 2): 0.52 nM
